Test results reported in US6358885B1, “Substituted phenylheterocyclic herbicides” (Mississippi State University, priority 1992, dated 2002).

Experiments:
barley [1] = assay: Test B preemergence/postemergence greenhouse plant response rating 0 to 10; type: in vivo, Hordeum vulgare; details: 0 to 10 scale
Procedure, shortened: (§1)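 Postemergence treatment of plants two to eighteen cm tall ran alongside preemergence treatment of planted seed, each using compound in a non-phytotoxic solvent.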

bedstraw [2] = assay: as above; type: in vivo, Galium aparine; details: 0 to 10 scale
Procedure, shortened: as §1

blackgrass [3] = assay: as above; type: in vivo, Alopecurus myosuroides; details: 0 to 10 scale
Procedure, shortened: as §1

cheatgrass = assay: as above; type: in vivo, Bromus secalinus; details: 0 to 10 scale
Procedure, shortened: as §1

cotton = assay: as above; type: in vivo, Gossypium hirsutum; details: 0 to 10 scale
Procedure, shortened: as §1

rape = assay: as above; type: in vivo, Brassica napus; details: 0 to 10 scale
Procedure, shortened: as §1

rice = assay: as above; type: in vivo, Oryza sativa; details: 0 to 10 scale
Procedure, shortened: as §1

sorghum [4] = assay: as above; type: in vivo, Sorghum bicolor; details: 0 to 10 scale
Procedure, shortened: as §1

wheat = assay: as above; type: in vivo, Triticum aestivum; details: 0 to 10 scale
Procedure, shortened: as §1

barley [5] = assay: Test C preemergence/postemergence greenhouse plant response rating 0 to 100; type: in vivo, Hordeum vulgare; details: POSTEMERGENCE; for Plant response rating Barley Igri: 0 to 100 scale
Procedure, shortened: (§2)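 Compounds in non-phytotoxic solvent went onto sandy loam before emergence (seeded one day earlier) or onto plants at the one-to-four leaf stage. Duck salad was treated via flood water (~2.5 cm, maintained) over silt loam.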

bedstraw [6] = assay: as above; type: in vivo, Galium aparine; details: POSTEMERGENCE; for Plant response rating, Bedstraw: 0 to 100 scale
Procedure, shortened: as §2

blackgrass [7] = assay: as above; type: in vivo, Alopecurus myosuroides; details: POSTEMERGENCE; for Plant response rating, Blackgrass: 0 to 100 scale
Procedure, shortened: as §2

pigweed = assay: as above; type: in vivo, Amaranthusretroflexus; details: POSTEMERGENCE; for Plant response rating Pigweed: 0 to 100 scale
Procedure, shortened: as §2

ryegrass = assay: as above; type: in vivo, Lolium multiflorum; details: POSTEMERGENCE; for Plant response rating Ryegrass: 0 to 100 scale
Procedure, shortened: as §2

sorghum [8] = assay: as above; type: in vivo, Sorghum bicolor; details: POSTEMERGENCE; for Plant response rating, Sorghum: 0 to 100 scale
Procedure, shortened: as §2

sugar beet = assay: as above; type: in vivo, Beta vulgaris; details: POSTEMERGENCE; for Plant response rating, Sugar beet: 0 to 100 scale
Procedure, shortened: as §2

wild buckwheat = assay: as above; type: in vivo, Polygonum convolvulus; details: POSTEMERGENCE; for Plant response rating, Wild buckwheat: 0 to 100 scale
Procedure, shortened: as §2

duck salad = assay: Test C flood test plant response rating 0 to 100; type: in vivo, Heteranthera limosa; details: for Plant response rating Duck salad: flood test species listed under POSTEMERGENCE, 0 to 100 scale
Procedure, shortened: as §2

C#CC(C)N1C(=O)COc2cc(F)c(-c3nn4c(c3Cl)CCCC4)cc21 (stereo not shown) [Compound 50]
Plant response rating, Barley (barley [1]; POSTEMERGENCE, Rate 10 g/ha): 3 | Plant response rating, Barley (barley [1]; POSTEMERGENCE, Rate 50 g/ha): 4 | Plant response rating, Barley (barley [1]; PREEMERGENCE, Rate 10 g/ha): 0 | Plant response rating, Barley (barley [1]; PREEMERGENCE, Rate 50 g/ha): 0 | Plant response rating, Bedstraw (bedstraw [2]; POSTEMERGENCE, Rate 10 g/ha): 10 | Plant response rating, Bedstraw (bedstraw [2]; POSTEMERGENCE, Rate 50 g/ha): 10 | Plant response rating, Bedstraw (bedstraw [2]; PREEMERGENCE, Rate 10 g/ha): 3 | Plant response rating, Bedstraw (bedstraw [2]; PREEMERGENCE, Rate 50 g/ha): 10 | Plant response rating, Blackgrass (blackgrass [3]; POSTEMERGENCE, Rate 10 g/ha): 6 | Plant response rating, Blackgrass (blackgrass [3]; POSTEMERGENCE, Rate 50 g/ha): 6 | Plant response rating, Blackgrass (blackgrass [3]; PREEMERGENCE, Rate 10 g/ha): 4 | Plant response rating, Blackgrass (blackgrass [3]; PREEMERGENCE, Rate 50 g/ha): 6 | Plant response rating, Cheatgrass (cheatgrass; POSTEMERGENCE, Rate 10 g/ha): 5 | Plant response rating, Cheatgrass (cheatgrass; POSTEMERGENCE, Rate 50 g/ha): 6 | Plant response rating, Cheatgrass (cheatgrass; PREEMERGENCE, Rate 10 g/ha): 2 | Plant response rating, Cheatgrass (cheatgrass; PREEMERGENCE, Rate 50 g/ha): 3 | Plant response rating, Cotton (cotton; POSTEMERGENCE, Rate 10 g/ha): 9 | Plant response rating, Cotton (cotton; POSTEMERGENCE, Rate 50 g/ha): 10 | Plant response rating, Cotton (cotton; PREEMERGENCE, Rate 10 g/ha): 0 | Plant response rating, Cotton (cotton; PREEMERGENCE, Rate 50 g/ha): 0 | Plant response rating, Rape (rape; POSTEMERGENCE, Rate 10 g/ha): 9 | Plant response rating, Rape (rape; POSTEMERGENCE, Rate 50 g/ha): 10 | Plant response rating, Rape (rape; PREEMERGENCE, Rate 50 g/ha): 8 | Plant response rating, Rice (rice; POSTEMERGENCE, Rate 10 g/ha): 6 | Plant response rating, Rice (rice; POSTEMERGENCE, Rate 50 g/ha): 4 | Plant response rating, Rice (rice; PREEMERGENCE, Rate 50 g/ha): 2 | Plant response rating, Sorghum (sorghum [4]; POSTEMERGENCE, Rate 10 g/ha): 4 | Plant response rating, Sorghum (sorghum [4]; POSTEMERGENCE, Rate 50 g/ha): 3 | Plant response rating, Sorghum (sorghum [4]; PREEMERGENCE, Rate 50 g/ha): 0 | Plant response rating, Wheat (wheat; POSTEMERGENCE, Rate 10 g/ha): 4 | Plant response rating, Wheat (wheat; POSTEMERGENCE, Rate 50 g/ha): 4 | Plant response rating, Wheat (wheat; PREEMERGENCE, Rate 50 g/ha): 0 | Plant response rating Barley Igri (barley [5]; 62 g/ha): 40 | Plant response rating Barley Igri (barley [5]; 250 g/ha): 50 | Plant response rating (0 to 100), Barley Igri (barley [5]; Rate 1 g/ha): 0 | Plant response rating (0 to 100), Barley Igri (barley [5]; Rate 4 g/ha): 20 | Plant response rating (0 to 100), Barley Igri (barley [5]; Rate 16 g/ha): 30 | Plant response rating, Bedstraw (bedstraw [6]; 62 g/ha): 100 | Plant response rating, Bedstraw (bedstraw [6]; 250 g/ha): 100 | Plant response rating (0 to 100), Bedstraw (bedstraw [6]; Rate 1 g/ha): 10 | Plant response rating (0 to 100), Bedstraw (bedstraw [6]; Rate 4 g/ha): 20 | Plant response rating (0 to 100), Bedstraw (bedstraw [6]; Rate 16 g/ha): 60 | Plant response rating, Blackgrass (blackgrass [7]; 62 g/ha): 60 | Plant response rating, Blackgrass (blackgrass [7]; 250 g/ha): 60 | Plant response rating (0 to 100), Blackgrass (blackgrass [7]; Rate 1 g/ha): 20 | Plant response rating (0 to 100), Blackgrass (blackgrass [7]; Rate 4 g/ha): 30 | Plant response rating (0 to 100), Blackgrass (blackgrass [7]; Rate 16 g/ha): 50 | Plant response rating Pigweed (pigweed; 62 g/ha): 100 | Plant response rating Pigweed (pigweed; 250 g/ha): 100 | Plant response rating (0 to 100), Pigweed (pigweed; Rate 1 g/ha): 85 | Plant response rating (0 to 100), Pigweed (pigweed; Rate 4 g/ha): 100 | Plant response rating (0 to 100), Pigweed (pigweed; Rate 16 g/ha): 100 | Plant response rating Ryegrass (ryegrass; 62 g/ha): 40 | Plant response rating Ryegrass (ryegrass; 250 g/ha): 50 | Plant response rating (0 to 100), Ryegrass (ryegrass; Rate 1 g/ha): 0 | Plant response rating (0 to 100), Ryegrass (ryegrass; Rate 4 g/ha): 20 | Plant response rating (0 to 100), Ryegrass (ryegrass; Rate 16 g/ha): 30 | Plant response rating, Sorghum (sorghum [8]; 62 g/ha): 50 | Plant response rating, Sorghum (sorghum [8]; 250 g/ha): 50 | Plant response rating (0 to 100), Sorghum (sorghum [8]; Rate 1 g/ha): 30 | Plant response rating (0 to 100), Sorghum (sorghum [8]; Rate 4 g/ha): 50 | Plant response rating (0 to 100), Sorghum (sorghum [8]; Rate 16 g/ha): 50 | Plant response rating, Sugar beet (sugar beet; 62 g/ha): 100 | Plant response rating, Sugar beet (sugar beet; 250 g/ha): 100 | Plant response rating (0 to 100), Sugar beet (sugar beet; Rate 1 g/ha): 20 | Plant response rating (0 to 100), Sugar beet (sugar beet; Rate 4 g/ha): 100 | Plant response rating (0 to 100), Sugar beet (sugar beet; Rate 16 g/ha): 100 | Plant response rating, Wild buckwheat (wild buckwheat; 62 g/ha): 100 | Plant response rating, Wild buckwheat (wild buckwheat; 250 g/ha): 100 | Plant response rating (0 to 100), Wild buckwheat (wild buckwheat; Rate 1 g/ha): 0 | Plant response rating (0 to 100), Wild buckwheat (wild buckwheat; Rate 4 g/ha): 20 | Plant response rating (0 to 100), Wild buckwheat (wild buckwheat; Rate 16 g/ha): 80 | Plant response rating (0 to 100), Duck salad (duck salad; POSTEMERGENCE section, flood test, Rate 4 g/ha): 0 | Plant response rating (0 to 100), Duck salad (duck salad; Rate 16 g/ha, under POSTEMERGENCE head (flood test species)): 0 | Plant response rating Duck salad (duck salad; 62 g/ha): 0 | Plant response rating Duck salad (duck salad; 250 g/ha): 90
